Results on four compounds are retold here after the NIST ThermoML archive (doi:10.1021/je700132w).

The structures appear in SMILES notation. ± gives the expanded uncertainty stated by the source.

For the data set the following is noted: Liquid; for Critical pressure: Direct measurement; for Critical density: Rectilinear diameter; for Critical temperature: Visual observation in an unstirred cell.

Regarding `CC(C)C` [2-methylpropane], the Critical pressure came to 3620 ± 60 kPa, the Critical density amounted to 220 ± 6 kg/m3 and the Critical temperature amounted to 409.9 ± 0.6 K.
The like results for `CC(C)CC(C)(C)C` [2,2,4-trimethylpentane] were, in that order, 2570 ± 60 kPa, 251 ± 7 kg/m3 and 544.1 ± 0.6 K.
Regarding `O=C=O` [carbon dioxide], the Critical pressure worked out at 7380 ± 60 kPa, the Critical density was 473 ± 8 kg/m3 and the Critical temperature came out at 304.8 ± 0.6 K.
The corresponding values for `C=CCC` [1-butene] are 4000 ± 60 kPa, 233 ± 7 kg/m3 and 421.2 ± 0.6 K.
